Data taken from patent US10351519B2, “Sulfamate derivative compounds, processes for preparing them and their uses” (BIO-PHARM SOLUTIONS CO., LTD., priority 2016, dated 2019).

How the values were obtained:
Format in all cases: in vivo
ICR mice = experiment: Anti-epilepsy activity, MES test, mouse; conditions: for ED50 / responders at 50 mg/kg / responders at 30 mg/kg: po; for responders at 50 mg/kg / responders at 30 mg/kg: read-out: MES test (po) efficacy %
Procedure: (§1) In the MES test (Ref., G. Villetti et al. Neuropharmacology 40 (2001) 866-878), an electrical stimulus (mice: 50 mA, 60 Hz, 0.2 sec, and rats: 150 mA, 60 Hz, 0.2 sec in the test animal) supplied by an 11A Shocker (IITC Life Science Company) was delivered through corneal electrodes. All mice or rats assigned to any electroshock at peak time were treated with each test compound sample which was dissolved in 30% PEG 400 or 20% tween 80 prepared by saline solvent applied orally before the test. […] Three doses of the test sample were administered orally to 9-18 animals (3-6 mice per dose) for evaluating the respective doses at which 50% of the animals were protected from seizure (ED50). The ED50 value (median effective dose) was calculated by Litchfield and Wicoxon log-probit method which is a dose-response relationship. Experimental animals, male ICR mice and male SD rats, were purchased from OrientBio, Samtako, or Nara Biotech, Korea, and housed in cages (4-5 mice or 3 rats per cage) for 4-5 days. The range of mice body weight was between 19 and 25 grams and range of rats body weight was between 100 and 130 grams.

SD rats = experiment: Anti-epilepsy activity, MES test, rat
Procedure: as §1

Sprague-Dawley rats [1] = experiment: Antiallodynic activity on Complete Freund's Adjuvant (CFA)-induced inflammatory pain model; conditions: intraperitoneally; for response vs control in vivo at 50 mg/kg: read-out: CFA-induced pain model efficacy %
Procedure: Male, Sprague-Dawley rats (210-250 g, Nara Bio, Korea) were habituated for 1 week before CFA injection and allowed free access to food and water throughout the experimentation. Room temperature and humidity were maintained at 24±2 and 50±10%, respectively.
CFA-induced inflammatory pain was induced by the procedure of Nagakura et al. (2003) and Gregory P. et al. (2010) with minor modifications. CFA (sigma, USA) was injected in the right plantar with a 100 ul volume under gaseous anesthesia with isoflurane. Sham controls were injected with 100 ul of saline and preparation of the vehicles without compound in the vehicle control group. Tactile sensitivity (Mechanical allodynia) was evaluated using von Frey monofilaments before and after treatment, and the animals were included in the study only if the withdrawal threshold value was less than 4 g. One week after surgery, CFA-infused treatment animals (n=4-6), sham-operated animals (n=12), and vehicle control animals (n=17) were tested for tactile sensitivity with von Frey monofilaments 3 trials for each animal. All Animals were placed in a stainless steel mesh chamber and habituated for 30 min in the test box. The tactile sensitivity for ipsilateral hind paw was measured using the up-and-down method (Dixon, 1980) with seven von Frey monofilaments (0.4, 1, 2, 4, 6, 8, and 15 g) to 3 trials. Tactile sensitivity test was followed by Dixon's method (Dixon, 1980). The 50% paw withdrawal threshold for each paw was calculated using the following formula: [Xth] log=[vFr] log+ky where [vFr] is the force of the last von Frey used, k=0.2249 which is the average interval (in log units) between the von Frey monofilaments, and y is a value that depends upon the pattern of withdrawal responses (Dixon, 1980).
Antiallodynic effect of compound was evaluated at the dose of 10-60 mg/kg (n=4-6), intraperitoneally administrated in a volume of 5 ul/g bw in a vehicle of 30% (v/v) PEG or 20% (v/v) Tween 80. The test was performed peak time of efficacy (0.5 or 1 hr) after compound administration.
The relative values compared to the sham (% control) were calculated and shown in Table 4, which show an antiallodynic effect of Compound 1 on CFA-induced pain model in rats.

Sprague-Dawley rats [2] = experiment: Antiallodynic activity on Chung model (SNL, spinal nerve ligation); conditions: orally; for SNL efficacy %: 30 mg/kg
From the text: Male Sprague-Dawley rats (100-130 g, Orient Bio, Korea) were habituated for 1 week before the experiment and allowed free access to food and water throughout the experimentation. Room temperature and humidity were maintained at 24±2 and 50±10%, respectively. The neuropathic surgery (SNL, Spinal nerve ligation) model was done as described in Kim and Chung (1992). Briefly, an animal was put under gaseous anesthesia with isoflurane. The left lumber spinal nerve L5 and L6 were isolated and tightly ligated with 6-0 silk thread. The wound muscle was closed with Catgut® chrom 3/0 thread and skin was closed with Dafilon 3/0 tread. Sham controls were prepared in the same manner with the spinal nerves exposed, but with no ligated L5 and L6 nerves. Preparation of the vehicle controls were identical to the group treated with compound, except for administration of vehicles without compound in the vehicle control group.
Tactile sensitivity (Mechanical allodynia) was evaluated using von Frey monofilaments before and after treatment, and animals were included in the study only if the withdrawal threshold value was less than 4 g. One week after surgery, SNL-operated animals, sham-operated animals and vehicle control animals were tested for tactile sensitivity with von Frey monofilaments 3 trials in each animal. All Animals were placed in a stainless steel mash chamber and habituated for 30 min in the test cage. The tactile sensitivity for the ipsilateral hind paw was measured using the up-and-down method (Dixon, 1980) with seven von Frey monofilaments (0.4, 1, 2, 4, 6, 8, and 15 g) in 3 trials. The tactile sensitivity test was followed by Dixon's method (Dixon, 1980). The 50% paw withdrawal threshold for each paw was calculated using the following formula: [Xth] log=[vFr] log+ky where [vFr] is the force of the last von Frey used, k=0.2249 which is the average interval (in log units) between the von Frey monofilaments, and y is a value that depends upon the pattern of withdrawal responses (Dixon, 1980).
All animals were fasted 18 h before the administration of the compounds. Antiallodynic effect of compounds were evaluated at the three dose, orally administrated in a volume of 5 ul/g, bw in a vehicle of 30% (v/v) PEG 400 or 20% (v/v) Tween 80. The test was performed at the peak time of efficacy after compound administration.
The relative values compared to the sham group (% control) were calculated and shown in Table 3, which show an antiallodynic effect of the test compounds on SNL model in rats.

SMILES	MES test (po) Peak time (ICR mice) [h]	response vs control in vivo at 50 mg/kg (Sprague-Dawley rats [1]; Rattus norvegicus, ip) [%]	CFA-induced pain model Peak Time (Sprague-Dawley rats [1]) [h]	other results
COCO[C@@H](c1cccc(Cl)c1Cl)[C@H](C)OS(N)(=O)=O [Example 53, (1S, 2S)-1-(2,3-dichlorophenyl)-1-(methoxymethoxy)propan-2-yl sulfamate]	2	–	–	ED50 (ICR mice): 67.8 mg/kg
CC[C@@H](OS(N)(=O)=O)[C@H](O)c1ccccc1Cl [Example 12, (1R, 2R)-1-(2-chlorophenyl)-1-hydroxybutan-2-yl sulfamate]	–	21.9	0.5	MES test (po) Peak time (SD rats): 1 h; MES test (po) efficacy % (SD rats; 100 mg/kg): 100%
CC(C)NS(=O)(=O)O[C@H](C)[C@H](O)c1ccccc1Cl [Example 38, (1R, 2R)-1-(2-chlorophenyl)-1-hydroxypropan-2-yl isopropylsulfamate]	2	–	–	responders at 50 mg/kg (ICR mice): 50%
C[C@H](OS(N)(=O)=O)[C@@H](O)c1ccc(Cl)cc1Cl [Example 3, (1S, 2S)-1-(2,4-dichlorophenyl)-1-hydroxypropan-2-yl sulfamate]	–	–	–	MES test (po) Peak time (SD rats): 4 h; MES test (po) efficacy % (SD rats; 20 mg/kg): 16.6%
COCO[C@@H](c1ccccc1Cl)[C@H](C)OS(=O)(=O)NC1CC1 [Example 78, (1S, 2S)-1-(2-chlorophenyl)-1-(methoxymethoxy)propan-2-yl cyclopropylsulfamate]	4	–	–	responders at 50 mg/kg (ICR mice): 25%
CO[C@@H](c1ccccc1I)[C@H](C)OS(N)(=O)=O [Example 92, (1S,2S)-1-(2-iodophenyl)-1-methoxypropan-2-yl sulfamate]	–	31.8	0.5	–
C[C@H](OS(N)(=O)=O)[C@@H](O)c1sc(Cl)nc1Cl [Example 102, (1R,2S)-1-(2,4-dichlorothiazol-5-yl)-1-hydroxypropan-2-yl sulfamate]	2	–	–	ED50 (ICR mice): 42.7 mg/kg
COCO[C@@H](c1sc(Cl)nc1Cl)[C@H](C)OS(N)(=O)=O [Example 103, (1R,2S)-1-(2,4-dichlorothiazol-5-yl)-1-(methoxymethoxy)propan-2-yl sulfamate]	2	–	–	ED50 (ICR mice): 52.7 mg/kg
CC[C@H](OS(N)(=O)=O)[C@@H](O)c1ccccc1Cl [Example 11, (1S, 2S)-1-(2-chlorophenyl)-1-hydroxybutan-2-yl sulfamate]	2	–	–	responders at 50 mg/kg (ICR mice): 25%; MES test (po) Peak time (SD rats): 2 h; MES test (po) efficacy % (SD rats; 24 mg/kg): 33.3%
C[C@H](OS(N)(=O)=O)[C@@H](O)c1ccccc1F [Example 17, (1S, 2S)-1-(2-fluorophenyl)-1-hydroxypropan-2-yl sulfamate]	–	–	0.5	ED50 (Sprague-Dawley rats [2]; Rattus norvegicus, po, at peak time): 46.9 mg/kg; SNL Peak Time (Sprague-Dawley rats [2]): 1 h; ED50 (Sprague-Dawley rats [1]; Rattus norvegicus, ip, at peak time): 48.7 mg/kg
CC(C)[C@@H](OS(N)(=O)=O)[C@H](O)c1ccccc1Cl [Example 14, (1R, 2R)-1-(2-chlorophenyl)-1-hydroxy-3-methylbutan-2-yl sulfamate]	1	18.4	1	responders at 50 mg/kg (ICR mice): 25%
COCO[C@@H](c1c(F)cccc1Cl)[C@H](C)OS(N)(=O)=O [Example 61, (1S, 2S)-1-(2-chloro-6-fluorophenyl)-1-(methoxymethoxy)propan-2-yl sulfamate]	2	–	–	responders at 30 mg/kg (ICR mice): 33.3%
CC(C)NS(=O)(=O)O[C@@H](C)[C@@H](O)c1ccccc1Cl [Example 37, (1S, 2S)-1-(2-chlorophenyl)-1-hydroxypropan-2-yl isopropylsulfamate]	–	–	–	MES test (po) Peak time (SD rats): 2 h; MES test (po) efficacy % (SD rats; 10 mg/kg): 16.6%
COCO[C@@H](c1c(Cl)cccc1Cl)[C@H](C)OS(N)(=O)=O [Example 57, (1S, 2S)-1-(2,6-dichlorophenyl)-1-(methoxymethoxy)propan-2-yl sulfamate]	–	–	–	SNL Peak Time (Sprague-Dawley rats [2]): 1 h; SNL efficacy % (Sprague-Dawley rats [2]): 30(26.3%)
COCO[C@H](c1c(Cl)cccc1Cl)[C@@H](C)OS(N)(=O)=O [Example 58, (1R, 2R)-1-(2,6-dichlorophenyl)-1-(methoxymethoxy)propan-2-yl sulfamate]	1	17.7	0.5	ED50 (ICR mice): 54.4 mg/kg
COCO[C@H](c1ccccc1Cl)[C@@H](C)OS(=O)(=O)NC1CC1 [Example 79, (1R, 2R)-1-(2-chlorophenyl)-1-(methoxymethoxy)propan-2-yl cyclopropylsulfamate]	1	–	–	responders at 50 mg/kg (ICR mice): 25%
COCO[C@@H](c1ccccc1I)[C@H](C)OS(N)(=O)=O [Example 74, (1S, 2S)-1-(2-iodophenyl)-1-(methoxymethoxy)propan-2-yl sulfamate]	0.5	19.9	0.5	responders at 30 mg/kg (ICR mice): 33.3%
CC(C)[C@H](OS(N)(=O)=O)[C@@H](O)c1ccccc1Cl [Example 13, (1S, 2S)-1-(2-chlorophenyl)-1-hydroxy-3-methylbutan-2-yl sulfamate]	1	–	–	responders at 50 mg/kg (ICR mice): 25%
C[C@H](OS(N)(=O)=O)[C@@H](O)c1cccc(Cl)c1Cl [Example 9, (1S, 2S)-1-(2,3-dichlorophenyl)-1-hydroxypropan-2-yl sulfamate]	4	–	–	ED50 (ICR mice): 61.8 mg/kg
COCO[C@@H](c1ccccc1F)[C@H](C)OS(N)(=O)=O [Example 72, (1S, 2S)-1-(2-fluorophenyl)-1-(methoxymethoxy)propan-2-yl sulfamate]	–	25.9	0.5	–
CC[C@@H](OS(N)(=O)=O)[C@H](OCOC)c1ccccc1Cl [Example 71, (1R, 2R)-1-(2-chlorophenyl)-1-(methoxymethoxy)butan-2-yl sulfamate]	–	41.9	0.5	SNL Peak Time (Sprague-Dawley rats [2]): 0.5 h; SNL efficacy % (Sprague-Dawley rats [2]): 30(31.9%)
